One assay addresses c-Src (Homo sapiens (Human), UniProt P12931). In words: c-Src enzyme inhibition (FRET, Z-LYTE). The assay is classed as biochemical. The method, boiled down:
(§1)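 Z-LYTE FRET read-out uses protease cleavage of unphosphorylated peptide, and the donor/acceptor ratio reflects phosphorylation. Kinase stocks (c-Src 3000, Syk 2000 ng/mL) were preincubated 2 hr RT with compound stocks of 0.004–4 μg/mL. Peptide and ATP solutions (c-Src 800 μM, Syk 60 μM) were then added for 1 hr. IC50 was taken from concentration-response.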

Assay [1] concerns PBMCs. In words: LPS-induced IL-8 release in PBMC cells (assay b). The class given is cell-based, human. The conditions noted are these: Homo sapiens, PBMC; LPS-stimulated PBMCs; read-out: IC50 Values for Inhibition of Cytokine Release, PBMCs IL-8. The method, boiled down: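 Cytokines (TNFα, IL-8) in supernatants were quantified by sandwich ELISA after a 24 h challenge with 1 ng/mL E. coli LPS at 37° C, 5% CO2. Healthy-donor PBMCs had been exposed to compound for 2 h beforehand. IC50 values were fitted from the concentration-response curves.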

In assay [2] the target is p38 MAPKα isoform (MAPK14) (Homo sapiens (Human), UniProt Q16539). In words: p38 MAPKα enzyme inhibition (FRET, Z-LYTE, Method 2). The assay is classed as biochemical. The method, boiled down: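 Z-LYTE FRET: p38 MAPKα (80 ng/mL for Method 1, 200 ng/mL for Method 2, pre-dilution) preincubated 2 hr RT with compound (4–0.004 μg/mL solutions), activity read via MAPKAP-K2 phosphorylation after 1 hr RT and 1 hr protease development. Coumarin/fluorescein ratio gives phosphorylation; % inhibition versus uninhibited control, IC50 from concentration-response curve.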
p38 MAPKα isoform (MAPK14), sequence (Q16539 whole entry, canonical isoform): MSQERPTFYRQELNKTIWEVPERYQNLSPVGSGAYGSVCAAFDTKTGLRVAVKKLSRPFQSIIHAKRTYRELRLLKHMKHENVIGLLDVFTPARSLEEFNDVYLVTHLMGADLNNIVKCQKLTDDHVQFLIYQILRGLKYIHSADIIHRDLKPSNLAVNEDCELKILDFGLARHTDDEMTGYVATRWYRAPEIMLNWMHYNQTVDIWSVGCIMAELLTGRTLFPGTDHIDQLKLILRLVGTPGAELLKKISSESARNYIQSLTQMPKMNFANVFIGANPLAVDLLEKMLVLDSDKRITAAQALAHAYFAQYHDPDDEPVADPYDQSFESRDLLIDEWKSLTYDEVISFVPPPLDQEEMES

The test system of another assay is d-U937 cells. Put plainly: Accumulation of β catenin in d-U937 cells (assay m). The assay is classed as cell-based, human. The conditions noted are these: percentage relative to Reference Compound at 1 μg/mL. The method, boiled down:
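Read-out: colourimetric cell-based immunoassay for endogenous β-catenin (OD450 minus 655 reference), normalised to crystal violet absorbance at 595 nm. Test compound or vehicle was applied for 18 hr to U937 monocytes first differentiated with PMA (100 ng/mL) for 48–72 hr.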

In another assay the test system is HT29 cells. Put plainly: IL-1β-induced IL-8 release in HT29 cells (assay d). The assay is classed as cell-based. The conditions noted are these: Homo sapiens, HT-29; IL-1β-stimulated HT29 cells; read-out: IC50 Values for Inhibition of Cytokine Release, HT29 cells IL-8. As to the method:
HT29 cells, a human colon adenocarcinoma cell line, are plated in a 96 well plate (24 hrs) and pre-treated with compounds at the desired concentration for 2 hours before addition of 5 ng/mL of IL-1β (Abcam) for 24 hours. Supernatants are harvested for IL-8 quantification by Sandwich ELISA (Duo-set, R&D System). The IC50 is determined from the dose response curve.

Another assay deals with Syk (Homo sapiens (Human), UniProt P43405). In words: Syk enzyme inhibition (FRET, Z-LYTE). The assay is classed as biochemical. The method, boiled down:
as §1

The target of the next assay is GSK 3α (Homo sapiens (Human), UniProt P49840). In words: GSK 3α enzyme inhibition (FRET, Z-LYTE, Method 2). The assay is classed as biochemical. The conditions noted are these: read-out: IC50 Values for Enzyme Inhibition, GSK3α. The method, boiled down:
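Phosphorylation of a dual-labelled synthetic peptide by human GSK3α is read as a coumarin/fluorescein ratio after protease development. Compound stocks run 4 to 0.004 μg/mL, and ATP stock is 40 μM.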

The test system of assay [3] is PBMCs. In words: Cell mitosis assay in PBMCs (assay g). The class given is cell-based. The conditions noted are these: Homo sapiens, PBMC, test compound 5 μg/mL. The method, boiled down: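 Metaphase arrest with 0.1 μg/mL demecolcine during the final 2 hr of a 20 hr compound exposure, which follows 48 hr of 2% PHA stimulation of healthy-donor human PBMCs. Mitotic lymphocytes counted by flow cytometry (anti-phospho-histone 3 plus propidium iodide). Inhibition expressed relative to 0.5% DMSO.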

Assay [4] concerns PBMCs. In words: IL-2 release in CD3/CD28 stimulated PBMC cells (assay c). The class given is cell-based. As to conditions: Homo sapiens, read-out: IC50 Values for Inhibition of Cytokine Release, PBMCs IL-2. The method, boiled down: (§2)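 Sandwich ELISA of supernatant IL-2 and IFN gamma; IC50 from dose-response curve. Cells: density-gradient PBMCs from healthy subjects on plate-bound anti-CD3 0.3 μg/mL + anti-CD28 3 μg/mL, compound added, 3 d culture.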

The test system of assay [5] is PBMCs. In words: IFN gamma release in CD3/CD28 stimulated PBMC cells (assay c). As to conditions: Homo sapiens, read-out: IC50 Values for Inhibition of Cytokine Release, PBMCs IFNγ. The class given is cell-based. The method, boiled down: as §2

c-Src, sequence (P12931 whole entry, looked up): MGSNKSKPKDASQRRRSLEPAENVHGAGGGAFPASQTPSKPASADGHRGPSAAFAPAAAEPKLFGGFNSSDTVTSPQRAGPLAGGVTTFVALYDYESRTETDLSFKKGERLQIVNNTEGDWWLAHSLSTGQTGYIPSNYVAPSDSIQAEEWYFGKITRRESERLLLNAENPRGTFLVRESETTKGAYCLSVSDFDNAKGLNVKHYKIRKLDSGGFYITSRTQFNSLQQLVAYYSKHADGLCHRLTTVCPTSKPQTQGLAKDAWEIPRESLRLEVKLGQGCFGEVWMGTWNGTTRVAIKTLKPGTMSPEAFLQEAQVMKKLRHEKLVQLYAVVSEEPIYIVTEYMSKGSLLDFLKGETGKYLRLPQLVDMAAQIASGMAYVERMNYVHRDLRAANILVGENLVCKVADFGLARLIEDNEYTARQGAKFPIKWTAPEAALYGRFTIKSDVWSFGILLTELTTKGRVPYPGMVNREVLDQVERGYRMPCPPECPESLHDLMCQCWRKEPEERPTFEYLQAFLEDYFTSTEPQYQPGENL
GSK 3α, sequence (P49840 whole entry): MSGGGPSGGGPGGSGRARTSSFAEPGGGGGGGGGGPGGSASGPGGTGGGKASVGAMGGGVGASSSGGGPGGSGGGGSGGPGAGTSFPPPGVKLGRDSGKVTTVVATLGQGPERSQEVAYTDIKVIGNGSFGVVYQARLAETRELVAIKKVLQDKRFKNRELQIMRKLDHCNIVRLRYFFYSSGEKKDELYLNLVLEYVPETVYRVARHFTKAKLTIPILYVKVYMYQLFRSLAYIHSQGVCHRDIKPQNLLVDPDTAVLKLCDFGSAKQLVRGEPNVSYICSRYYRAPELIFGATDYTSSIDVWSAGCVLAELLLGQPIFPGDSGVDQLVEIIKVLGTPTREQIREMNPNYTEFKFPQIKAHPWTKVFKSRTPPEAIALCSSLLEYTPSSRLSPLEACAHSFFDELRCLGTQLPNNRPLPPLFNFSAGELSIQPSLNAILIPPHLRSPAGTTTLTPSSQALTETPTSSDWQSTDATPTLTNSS

In general, IC50 refers to the concentration at which inhibition is half-maximal. Turning to `COCCOCCOCCOc1cc(Nc2nccc(Oc3ccc(NC(=O)Nc4cc(C(C)(C)C)cc(CC(N)=O)c4OC)c4ccccc34)n2)cc(OC)c1` [15(c), 2-(5-(tert-butyl)-2-methoxy-3-(3-(4-((2-((3-methoxy-5-(2-(2-(2-methoxyethoxy)ethoxy)-ethoxy)phenyl)amino)pyrimidin-4-yl)oxy)naphthalen-1-yl)ureido)phenyl)acetamide], the IC50 was 16 nM against c-Src; 1.6 nM in the assay with PBMCs [1]; 52 nM in assay [2]; 3.6 nM in the assay on HT29 cells; 103 nM against Syk; 844 nM at GSK 3α. Also, the “% β-catenin induction” value amounted to 5.5% in the assay with d-U937 cells (test compound 1 μg/mL), 36.0% in the assay with d-U937 cells (test compound 5 μg/mL) and 33.0% in the assay on d-U937 cells (test compound 10 μg/mL).
Broadly, the inhibition is the drop in the measured response relative to a control, in per cent. High values mean strong suppression, low ones little suppression. As for `COc1c(NC(=O)Nc2ccc(Oc3ccnc(Nc4ccccc4)c3)c3ccccc23)cc(C(C)(C)C)cc1C(=O)NCCN1CCC1` [38(a), N-(2-(Azetidin-1-yl)ethyl)-5-(tert-butyl)-2-methoxy-3-(3-(4-((2-(phenylamino)pyridin-4-yl)oxy)naphthalen-1-yl)ureido)benzamide], the inhibition at 5 µg/mL with PBMCs [3] was 86.2%. The IC50 at c-Src came to 74 nM; with PBMCs [1] it was 3.8 nM; in [2] it was 119 nM; in the assay with HT29 cells, 25.7 nM; at Syk, 54 nM; at GSK 3α, 3320 nM. Besides, the “% β-catenin induction” value was 5.0% in the assay on d-U937 cells (test compound 1 μg/mL), 10.7% in the assay with d-U937 cells (test compound 5 μg/mL) and 19.0% in the assay with d-U937 cells (test compound 10 μg/mL).
`COc1cc(CO)cc(Nc2cc(Oc3ccc(NC(=O)Nc4cc(C(C)(C)C)cc(P(C)(C)=O)c4OC)c4ccccc34)ccn2)c1` [38(c), 1-(5-(tert-Butyl)-3-(dimethylphosphoryl)-2-methoxyphenyl)-3-(4-((2-((3-(hydroxymethyl)-5-methoxyphenyl)amino)pyridin-4-yl)oxy)naphthalen-1-yl)urea] had an inhibition at 5 µg/mL with PBMCs [3] of 90.2%. In addition, the IC50 turned out to be 12 nM against c-Src; 1.7 nM in the assay on PBMCs [1]; 27 nM in [2]; 7.3 nM in the assay on HT29 cells; 31 nM on Syk; 2220 nM at GSK 3α. For the same compound, the “% β-catenin induction” value in the assay with d-U937 cells (test compound 1 μg/mL) amounted to 3.5%; with d-U937 cells (test compound 5 μg/mL), 16.0%; in the assay with d-U937 cells (test compound 10 μg/mL), 28.5%.
In the case of `COc1c(NC(=O)Nc2ccc(Oc3ccnc(NCc4ccccn4)c3)c3ccccc23)cc(C(C)(C)C)cc1P(C)(C)=O` [38(e), 1-(5-(tert-Butyl)-3-(dimethylphosphoryl)-2-methoxyphenyl)-3-(4-((2-((pyridin-2-ylmethyl)amino)pyridin-4-yl)oxy)naphthalen-1-yl)urea], 5 µg/mL produced 41.6% inhibition with PBMCs [3]. For the same compound, the IC50 was 522 nM against c-Src; 2.9 nM in the assay on PBMCs [1]; 5 nM in assay [2]; 15.9 nM with HT29 cells; > 1600 nM at Syk; 1980 nM on GSK 3α. Also, the “% β-catenin induction” value in the assay with d-U937 cells (test compound 1 μg/mL) was found to be 2.0%; in the assay on d-U937 cells (test compound 5 μg/mL), 30.5%; in the assay on d-U937 cells (test compound 10 μg/mL), 32.5%.
`COc1c(CC(N)=O)cc(C(C)(C)C)cc1NC(=O)Nc1ccc(Oc2ccnc(Nc3cccc(OS(C)(=O)=O)c3)c2)c2ccccc12` [38(r), 3-((4-((4-(3-(3-(2-Amino-2-oxoethyl)-5-(tert-butyl)-2-methoxyphenyl)ureido)naphthalen-1-yl)oxy)pyridin-2-yl)amino)phenyl methanesulfonate]: at 5 µg/mL the inhibition in the assay on PBMCs [3] was 56.1%. The half-inhibitory concentration (IC50) was determined as 94 nM on c-Src; 153 nM in the assay on PBMCs [4]; 1.9 nM with PBMCs [1]; 151 nM in [2]; 9.8 nM in the assay on PBMCs [5]; 25.9 nM in the assay with HT29 cells. Further, the IC50 against Syk was > 1460 nM; on GSK 3α, 2210 nM.
In the assay with PBMCs [3], `COc1cc(Nc2cc(Oc3ccc(NC(=O)Nc4cc(C(C)(C)C)cc(C[S+](C)[O-])c4OC)c4ccccc34)ccn2)cc(C(=O)NCCN2CCOCC2)c1` (stereo not drawn) [38(u), 3-((4-((4-(3-(5-(tert-Butyl)-2-methoxy-3-((methylsulfinyl)methyl)phenyl)ureido)naphthalen-1-yl)oxy)pyridin-2-yl)amino)-5-methoxy-N-(2-morpholinoethyl)benzamide] had an inhibition at 5 µg/mL of 72.2%. Also, the IC50 was 13 nM on c-Src; 171 nM in the assay with PBMCs [4]; 1 nM in the assay on PBMCs [1]; 15 nM in assay [2]; 2.9 nM in the assay on PBMCs [5]; 2.6 nM in the assay on HT29 cells. In addition, on GSK 3α, the IC50 is 1070 nM.
Turning to `COCCOCCOCCOc1cc(Nc2nccc(Oc3ccc(NC(=O)Nc4cc(C(C)(C)C)cc(OS(C)(=O)=O)c4OC)c4ccccc34)n2)cc(OC)c1` [Example 5, 5-(tert-Butyl)-2-methoxy-3-(3-(4-((2-((3-methoxy-5-(2-(2-(2-methoxyethoxy)ethoxy)-ethoxy)phenyl)amino)pyrimidin-4-yl)oxy)naphthalen-1-yl)ureido)phenyl methanesulfonate], the results for the half-inhibitory concentration (IC50) with PBMCs [1], in the assay on HT29 cells and on GSK 3α were 8.7 nM, 7.3 nM and > 9380 nM, respectively.
`COc1c(NC(=O)Nc2ccc(Oc3ccnc(NCc4ccccn4)c3)c3ccccc23)cc(C(C)(C)C)cc1[S+](C)[O-]` (stereo not drawn) [Example 42, 1-(5-(tert-Butyl)-2-methoxy-3-(methylsulfinyl)phenyl)-3-(4-((2-((pyridin-2-ylmethyl)amino)pyridin-4-yl)oxy)naphthalen-1-yl)urea]: in the assay with PBMCs [3], the inhibition at 5 µg/mL stood at 29.9%. The half-inhibitory concentration (IC50) was > 1640 nM at c-Src; 4.3 nM in the assay on PBMCs [1]; 8 nM in [2]; 2 nM in the assay on HT29 cells; > 1640 nM against Syk; 3410 nM on GSK 3α. Besides, the figures for the “% β-catenin induction” value with d-U937 cells (test compound 1 μg/mL), with d-U937 cells (test compound 5 μg/mL) and in the assay with d-U937 cells (test compound 10 μg/mL) were −5.0%, 12.0% and 20.5%, respectively.
In the assay with PBMCs [3], `COc1cc(Nc2cc(Oc3ccc(NC(=O)Nc4cc(C(C)(C)C)cc(CC(N)=O)c4OC)c4ccccc34)ccn2)cc(C(=O)NCCN2CCOCC2)c1` [Example 45, 3-((4-((4-(3-(3-(2-Amino-2-oxoethyl)-5-(tert-butyl)-2-methoxyphenyl)ureido)naphthalen-1-yl)oxy)pyridin-2-yl)amino)-5-methoxy-N-(2-morpholinoethyl)benzamide] gave an inhibition at 5 µg/mL of 49.6%. For the same compound, the IC50 was 12 nM against c-Src; 36.4 nM in the assay with PBMCs [4]; 1.2 nM in the assay with PBMCs [1]; 21 nM in assay [2]; 5.2 nM with PBMCs [5]; 8 nM with HT29 cells. The IC50 at Syk is > 706 nM; on GSK 3α it was 1600 nM.
With `COc1cc(Nc2cc(Oc3ccc(NC(=O)Nc4cc(C(C)(C)C)cc([S+](C)[O-])c4OC)c4ccccc34)ccn2)cc(C(=O)NCCN2CCOCC2)c1` (stereo not drawn) [Example 46, 3-((4-((4-(3-(5-(tert-Butyl)-2-methoxy-3-(methylsulfinyl)phenyl)ureido)naphthalen-1-yl)oxy)pyridin-2-yl)amino)-5-methoxy-N-(2-morpholinoethyl)benzamide], the inhibition at 5 µg/mL in the assay with PBMCs [3] stood at 45.8%. The IC50 against c-Src amounted to 25 nM; in the assay with PBMCs [4], 47.3 nM; in the assay on PBMCs [1], 0.8 nM; in assay [2] it was 25 nM; with PBMCs [5], 2.8 nM; with HT29 cells it was 2.8 nM. The results for the IC50 against Syk and at GSK 3α were 996 nM and 2060 nM, respectively.
